Measured values: PubChem BioAssay AID2060882 (Molecular Pharmacology Branch, DTP, NCI, 2025)

System: 898857-211-R-J1-PDC complex spheroids, growth % test/control
Experiment: Anticancer human tumor 898857-211-R-J1-PDC patient-derived melanoma cell line growth inhibition [RAS]
Conditions: for IC50: curve of first compound; for viability, T/C: stronger effect = lower value
How it was run: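 Multi-cell-type spheroids: tumor cells plus HUVEC endothelial cells and mesenchymal stem cells. RAS-pathway inhibitors were combined with targeted agents, each dosed in half-log steps down from clinical Cmax, or from 10 microM when Cmax was unknown.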

[1] = second compound 0.000949 µM, first compound 0.0316 µM
[2] = second compound 0.000949 µM, first compound 0.1 µM
[3] = second compound 0.000949 µM, first compound 0.316 µM
[4] = second compound 0.000949 µM, first compound 1 µM
[5] = second compound 0.003 µM, first compound 0.0316 µM
[6] = second compound 0.003 µM, first compound 0.1 µM
[7] = second compound 0.003 µM, first compound 0.316 µM
[8] = second compound 0.003 µM, first compound 1 µM
[9] = second compound 0.00949 µM, first compound 0.0316 µM
[10] = second compound 0.00949 µM, first compound 0.1 µM
[11] = second compound 0.00949 µM, first compound 0.316 µM
[12] = second compound 0.00949 µM, first compound 1 µM
[13] = second compound 0.03 µM, first compound 0.0316 µM
[14] = second compound 0.03 µM, first compound 0.1 µM
[15] = second compound 0.03 µM, first compound 0.316 µM
[16] = second compound 0.03 µM, first compound 1 µM
[17] = second compound 0.0949 µM, first compound 0.0316 µM
[18] = second compound 0.0949 µM, first compound 0.1 µM
[19] = second compound 0.0949 µM, first compound 0.316 µM
[20] = second compound 0.0949 µM, first compound 1 µM
[21] = second compound 0.3 µM, first compound 0.0316 µM
[22] = second compound 0.3 µM, first compound 0.1 µM
[23] = second compound 0.3 µM, first compound 0.316 µM
[24] = second compound 0.3 µM, first compound 1 µM
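Further: spheroids exposed to compound for seven days before readout.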
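Wherever viability, T/C is given: 100% = DMSO vehicle control wells.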

CC(=O)OC12COC1CC(O)C1(C)C(=O)C(O)C3=C(C)C(OC(=O)C(O)C(NC(=O)OC(C)(C)C)c4ccccc4)CC(O)(C(OC(=O)c4ccccc4)C21)C3(C)C (stereo unspecified) + CCn1c(-c2cc(N3CCN(C)CC3)cnc2C(C)OC)c2c3cc(ccc31)-c1csc(n1)CC(NC(=O)C1CC1C)C(=O)N1CCCC(N1)C(=O)OCC(C)(C)C2
IC50 (second compound 0.000949 µM): < 31.6 nM
IC50 (second compound 0.003 µM): < 31.6 nM
IC50 (second compound 0.00949 µM): < 31.6 nM
IC50 (second compound 0.03 µM): < 31.6 nM
IC50 (second compound 0.0949 µM): < 31.6 nM
IC50 (second compound 0.3 µM): < 31.6 nM
viability, T/C [1]: 11.2%
viability, T/C [2]: 9.4%
viability, T/C [3]: 9.05%
viability, T/C [4]: 13.3%
viability, T/C (second compound 0.000949 µM, first compound 3.16 µM): 13.9%
viability, T/C (second compound 0.000949 µM, first compound 10 µM): 14.7%
viability, T/C [5]: 11.4%
viability, T/C [6]: 12.9%
viability, T/C [7]: 9.53%
viability, T/C [8]: 12.5%
viability, T/C (second compound 0.003 µM, first compound 3.16 µM): 12.7%
viability, T/C (second compound 0.003 µM, first compound 10 µM): 12.8%
viability, T/C [9]: 10.9%
viability, T/C [10]: 11.4%
viability, T/C [11]: 13%
viability, T/C [12]: 12.4%
viability, T/C (second compound 0.00949 µM, first compound 3.16 µM): 14.6%
viability, T/C (second compound 0.00949 µM, first compound 10 µM): 14.2%
viability, T/C [13]: 10.9%
viability, T/C [14]: 10.7%
viability, T/C [15]: 13.3%
viability, T/C [16]: 12.9%
viability, T/C (second compound 0.03 µM, first compound 3.16 µM): 15.6%
viability, T/C (second compound 0.03 µM, first compound 10 µM): 14.6%
viability, T/C [17]: 12.1%
viability, T/C [18]: 12.2%
viability, T/C [19]: 12.3%
viability, T/C [20]: 14.4%
viability, T/C (second compound 0.0949 µM, first compound 3.16 µM): 14.4%
viability, T/C (second compound 0.0949 µM, first compound 10 µM): 15.4%
viability, T/C [21]: 12.9%
viability, T/C [22]: 11.9%
viability, T/C [23]: 11.8%
viability, T/C [24]: 15.8%
viability, T/C (second compound 0.3 µM, first compound 3.16 µM): 14.9%
viability, T/C (second compound 0.3 µM, first compound 10 µM): 18.7%

CCc1c2c(nc3ccc(O)cc13)-c1cc3c(c(=O)n1C2)COC(=O)[C@]3(O)CC + CCn1c(-c2cc(N3CCN(C)CC3)cnc2C(C)OC)c2c3cc(ccc31)-c1csc(n1)CC(NC(=O)C1CC1C)C(=O)N1CCCC(N1)C(=O)OCC(C)(C)C2
IC50 (second compound 0.000949 µM): 3.72 nM
IC50 (second compound 0.003 µM): 3.54 nM
IC50 (second compound 0.00949 µM): 3.37 nM
IC50 (second compound 0.03 µM): 3.84 nM
IC50 (second compound 0.0949 µM): 3.78 nM
IC50 (second compound 0.3 µM): 3.6 nM
viability, T/C (second compound 0.000949 µM, first compound 0.000949 µM): 78.6%
viability, T/C (second compound 0.000949 µM, first compound 0.003 µM): 55.3%
viability, T/C (second compound 0.000949 µM, first compound 0.00949 µM): 25.9%
viability, T/C (second compound 0.000949 µM, first compound 0.03 µM): 8.36%
viability, T/C (second compound 0.000949 µM, first compound 0.0949 µM): 6.43%
viability, T/C (second compound 0.000949 µM, first compound 0.3 µM): 6.55%
viability, T/C (second compound 0.003 µM, first compound 0.000949 µM): 79.7%
viability, T/C (second compound 0.003 µM, first compound 0.003 µM): 53.8%
viability, T/C (second compound 0.003 µM, first compound 0.00949 µM): 25.5%
viability, T/C (second compound 0.003 µM, first compound 0.03 µM): 8.25%
viability, T/C (second compound 0.003 µM, first compound 0.0949 µM): 8.03%
viability, T/C (second compound 0.003 µM, first compound 0.3 µM): 5.94%
viability, T/C (second compound 0.00949 µM, first compound 0.000949 µM): 82.9%
viability, T/C (second compound 0.00949 µM, first compound 0.003 µM): 52.6%
viability, T/C (second compound 0.00949 µM, first compound 0.00949 µM): 24.3%
viability, T/C (second compound 0.00949 µM, first compound 0.03 µM): 9.47%
viability, T/C (second compound 0.00949 µM, first compound 0.0949 µM): 7.12%
viability, T/C (second compound 0.00949 µM, first compound 0.3 µM): 7.62%
viability, T/C (second compound 0.03 µM, first compound 0.000949 µM): 79.3%
viability, T/C (second compound 0.03 µM, first compound 0.003 µM): 56.2%
viability, T/C (second compound 0.03 µM, first compound 0.00949 µM): 27%
viability, T/C (second compound 0.03 µM, first compound 0.03 µM): 9.94%
viability, T/C (second compound 0.03 µM, first compound 0.0949 µM): 7.45%
viability, T/C (second compound 0.03 µM, first compound 0.3 µM): 5.98%
viability, T/C (second compound 0.0949 µM, first compound 0.000949 µM): 86.1%
viability, T/C (second compound 0.0949 µM, first compound 0.003 µM): 55.3%
viability, T/C (second compound 0.0949 µM, first compound 0.00949 µM): 28%
viability, T/C (second compound 0.0949 µM, first compound 0.03 µM): 9.13%
viability, T/C (second compound 0.0949 µM, first compound 0.0949 µM): 7.78%
viability, T/C (second compound 0.0949 µM, first compound 0.3 µM): 6.37%
viability, T/C (second compound 0.3 µM, first compound 0.000949 µM): 87.5%
viability, T/C (second compound 0.3 µM, first compound 0.003 µM): 55.5%
viability, T/C (second compound 0.3 µM, first compound 0.00949 µM): 20.6%
viability, T/C (second compound 0.3 µM, first compound 0.03 µM): 9.8%
viability, T/C (second compound 0.3 µM, first compound 0.0949 µM): 7.03%
viability, T/C (second compound 0.3 µM, first compound 0.3 µM): 7.37%

Nc1ccn(C2OC(CO)C(O)C2(F)F)c(=O)n1 (stereo unspecified) + CCn1c(-c2cc(N3CCN(C)CC3)cnc2C(C)OC)c2c3cc(ccc31)-c1csc(n1)CC(NC(=O)C1CC1C)C(=O)N1CCCC(N1)C(=O)OCC(C)(C)C2
IC50 (second compound 0.000949 µM): 5.06 nM
IC50 (second compound 0.003 µM): 4.37 nM
IC50 (second compound 0.00949 µM): 4.35 nM
IC50 (second compound 0.03 µM): 5.4 nM
IC50 (second compound 0.0949 µM): 5.47 nM
IC50 (second compound 0.3 µM): 6.69 nM
viability, T/C (second compound 0.000949 µM, first compound 0.00316 µM): 74%
viability, T/C (second compound 0.000949 µM, first compound 0.01 µM): 15.3%
viability, T/C [1]: 4.42%
viability, T/C [2]: 3.83%
viability, T/C [3]: 4.13%
viability, T/C [4]: 5.1%
viability, T/C (second compound 0.003 µM, first compound 0.00316 µM): 64.6%
viability, T/C (second compound 0.003 µM, first compound 0.01 µM): 13.1%
viability, T/C [5]: 4.34%
viability, T/C [6]: 4.05%
viability, T/C [7]: 5.71%
viability, T/C [8]: 4.93%
viability, T/C (second compound 0.00949 µM, first compound 0.00316 µM): 63.7%
viability, T/C (second compound 0.00949 µM, first compound 0.01 µM): 14.4%
viability, T/C [9]: 4.77%
viability, T/C [10]: 4.27%
viability, T/C [11]: 4.44%
viability, T/C [12]: 4.67%
viability, T/C (second compound 0.03 µM, first compound 0.00316 µM): 78%
viability, T/C (second compound 0.03 µM, first compound 0.01 µM): 18%
viability, T/C [13]: 4.69%
viability, T/C [14]: 3.93%
viability, T/C [15]: 5.09%
viability, T/C [16]: 5.74%
viability, T/C (second compound 0.0949 µM, first compound 0.00316 µM): 72%
viability, T/C (second compound 0.0949 µM, first compound 0.01 µM): 25.8%
viability, T/C [17]: 4.97%
viability, T/C [18]: 4.59%
viability, T/C [19]: 5.07%
viability, T/C [20]: 4.89%
viability, T/C (second compound 0.3 µM, first compound 0.00316 µM): 88.6%
viability, T/C (second compound 0.3 µM, first compound 0.01 µM): 29.3%
viability, T/C [21]: 5.64%
viability, T/C [22]: 3.79%
viability, T/C [23]: 4.58%
viability, T/C [24]: 4.96%
